{
  "source": "ChEMBL document CHEMBL5726656",
  "about": "“N-(phenylsulfonyl)benzamides and related compounds as BCL-2 inhibitors” (2019)",
  "molecular_target": "Apoptosis regulator Bcl-2 (Homo sapiens, UniProt P10415)",
  "sequence (P10415 whole entry)": "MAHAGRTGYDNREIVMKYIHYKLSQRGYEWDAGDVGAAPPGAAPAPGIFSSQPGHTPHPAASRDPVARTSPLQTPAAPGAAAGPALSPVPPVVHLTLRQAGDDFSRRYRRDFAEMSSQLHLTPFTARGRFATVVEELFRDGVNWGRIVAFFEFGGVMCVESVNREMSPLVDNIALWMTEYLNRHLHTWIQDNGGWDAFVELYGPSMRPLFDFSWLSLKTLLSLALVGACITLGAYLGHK",
  "assay": "FP values were measured as described above.",
  "data": [
    {"smiles": "O=C(NS(=O)(=O)c1cc([N+](=O)[O-])c2cnn(CC3CCOCC3)c2c1)c1ccc(N2CCN(CC3=C(c4ccc(Cl)cc4)CC4(CCC4)CC3)CC2)cc1Oc1cnc2[nH]ccc2c1", "values": [
      {"measurement": "IC50", "value": 1.6, "unit": "nM"}
    ]}
  ]
}
